Measured values from patent US20240228465A1, “SUBSTITUTED PYRIDINE N-OXIDE DERIVATIVES USEFUL AS A FACTOR XIA INHIBITORS” (Janssen Pharmaceutica NV, priority 2021, published 2024).
Where two headings read alike, the source gives them in different places.

Key:
human plasma kallikrein = human plasma kallikrein (Homo sapiens, UniProt P03952); assay: Kallikrein inhibition assay utilizing a quenched AMC peptide substrate (FLINT); assay type: biochemical
Procedure: Biological Example 2: Kallikrein Inhibition Assay Utilizing a Quenched AMC Peptide Substrate
A fluorescence intensity (FLINT) based assay was used to monitor inhibition of human plasma kallikrein. The peptide substrate, Z-Gly-Pro-Arg-AMC (Purchased from Bachem; Catalog #I-1150) was chosen based on its relatively low KM for kallikrein which enables running the assay at lower substrate concentrations to control background fluorescence. The kinetic parameters for this substrate were determined by fitting titration data to the Michaelis-Menten equation yielding a KM=40 μm, kcat=0.76 s^−1, and kcat/KM=18932 M^−1s^−1.
The Kallikrein FLINT assay was used with the following Z-Gly-Pro-Arg-AMC assay buffer: 50 mM Tris, pH 7.5, 100 mM NaCl, 5 mM CaCl2, 0.1 mg/mL BSA, 0.03% CHAPS. Assay buffer was prepared by mixing all ingredients fresh. 2× Z-Gly-Pro-Arg-AMC peptide substrate was prepared by diluting 10 mM stock into 1× assay buffer for a 100 μM working concentration (50 μM final concentration). The 2× kallikrein stock solution was prepared by diluting 14.76 μM stock in 1× assay buffer for a 4 nM working stock solution (2 nM final concentration).
Test compound(s) were run in an 11-point, 3-fold serial dilution with a final top compound concentration of 1 μM. Final DMSO in assay was 2%. Plasma kallikrein was pre-incubated for 30-minute with compound and then 50 μM substrate was added to initiate the reaction. The assay was run with either end point (EP) reads at 30 min or kinetic (KIN) reads at 5 min intervals over 30 minutes. The time course was linear using 2 nM kallikrein greater than 30 minutes. More specifically, the assay was run as follows: • 100 nL of 0.1 mM test compound was dispensed into black 384-well non-binding Greiner BioOne 784900 plate for 1 μM final concentration; • 5 μL of 1× assay buffer was dispensed to columns 24 (low control) and 5 μL 2× human kallikrein enzyme solution was dispensed to columns 1-23 (column 23 high control); • the plate was centrifuged with a “cover” plate at 500 rpm for 1 min • the plate was pre-incubated for 30 minutes at room temperature with plate covered; • 5 μL of 2× Z-Gly-Pro-Arg-AMC peptide substrate was dispensed into the entire plate, columns 1-24; • the plate was centrifuged with a “cover” plate at 500 rpm for 1 min; • the plate was read monitoring fluorescence intensity on the BMG PHERAStar at room temperature, using fluorescence module 340 nm/440 nm.
(§1) Percent inhibition (IC50) curves were generated per compound tested, and data was analyzed using a 4-parameter logistic fit using GeneData Screener. The relative fluorescence unit (RFU) values were normalized to percent inhibition using the following equation:
% inhibition=((HC−LC)−(compound−LC)/(HC−LC))*100 • where LC—low control=mean signal of human kallikrein enzyme or 100% inhibition of human kallikrein enzyme; HC—high control=mean signal of Factor XIa+Z-Gly-Pro-Arg-AMC peptide substrate with DMSO only.
(§2) An 11-point dose response curve for the test compound(s) was generated using GENDATA to determine IC50 value based on the following equation:
Y=Bottom+(Top−Bottom)/(1+10^((log IC50−X)*HillSlope)) • where Y is the % inhibition in the presence of X inhibitor concentration, Top=high control=mean signal of human kallikrein enzyme+Z-Gly-Pro-Arg-AMC peptide substrate with DMSO only; Bottom=low control—mean signal of no human kallikrein enzyme or 100% inhibition of human kallikrein enzyme; HillSlope—Hill coefficient; and IC50=concentration of compound with 50% inhibition in relation to top/high control.
Representative compounds of formula (I) of the present invention were tested according to the procedure described in Biological Example 1 and Biological Example 2 above, with results as listed in Table 3, below. Results listed in the (ER) column were measured using endpoint reads where a single fluorescence reading was measured for each well at a 30 min timepoint. […]

Factor XIa = Factor XIa (Homo sapiens, UniProt P03951); assay: Factor XIa inhibition assay utilizing a fluorophore-quencher pair peptide substrate (FLINT); assay type: biochemical
Sequence of Factor XIa (P03951 388-625 limits assumed): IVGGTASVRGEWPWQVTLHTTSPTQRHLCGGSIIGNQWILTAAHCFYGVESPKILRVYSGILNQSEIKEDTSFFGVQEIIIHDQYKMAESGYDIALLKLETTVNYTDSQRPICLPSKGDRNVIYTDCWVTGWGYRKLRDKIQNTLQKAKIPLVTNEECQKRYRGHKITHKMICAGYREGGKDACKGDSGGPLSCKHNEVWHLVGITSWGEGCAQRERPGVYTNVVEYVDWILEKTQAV
Sequence of Factor XIa (P03951 19-387 partner limits assumed): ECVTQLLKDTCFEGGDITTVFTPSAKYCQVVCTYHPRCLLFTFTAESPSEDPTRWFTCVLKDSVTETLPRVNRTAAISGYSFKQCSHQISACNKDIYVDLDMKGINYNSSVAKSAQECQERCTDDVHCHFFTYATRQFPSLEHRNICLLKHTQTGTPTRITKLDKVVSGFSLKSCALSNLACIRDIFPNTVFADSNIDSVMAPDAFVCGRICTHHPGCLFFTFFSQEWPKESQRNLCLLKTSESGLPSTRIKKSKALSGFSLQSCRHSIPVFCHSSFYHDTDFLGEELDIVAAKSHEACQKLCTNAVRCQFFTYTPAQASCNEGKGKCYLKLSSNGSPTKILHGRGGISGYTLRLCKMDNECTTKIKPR
Source text: Biological Example 1: Factor XIa Inhibition Assay Utilizing a Fluorophore-Quencher Pair Peptide Substrate
A fluorescence intensity (FLINT) based assay was used to monitor inhibition of Factor XIa. The peptide substrate, 5Fam-KLTRAETV-K5Tamra (purchased from New England Peptide) was chosen based on the […]. Conversion of zymogen […]. The custom peptide used in this assay was based on the Arg146 cleavage site of FXI. The peptide substrate was designed with a fluorophore-quencher pair, where the fluorescence is quenched until FXIa cleaves the 8-mer peptide after the Arg residue. The substrate KM was fit to a substrate inhibition model whereby kcat=0.86 s^−1, KM=12.4 μM, Ki=61.6 μM with an enzymatic efficiency, and kcat/KM=69523 M^−1s^−1.
The Factor XIa FLINT assay was used with the following 5Fam-KLTRAETV-K5Tamra assay buffer: 50 mM Tris, pH 7.5, 100 mM NaCl, 5 mM CaCl2, 0.1 mg/mL BSA, 0.03% CHAPS. Assay buffer was prepared by mixing all ingredients fresh. 5Fam-KLTRAETV-K5Tamra peptide substrate was first prepared at 10 mM in 100% DMSO, then diluted to 3 mM in 100% DMSO. Assay buffer was then added directly to the 3 mM stock of substrate to prepare the 30 μM 2× working concentration (15 μM final concentration). The 2× Factor XIa stock solution was prepared by diluting 6.562 μM stock in 1× assay buffer for a […].
Test compound(s) were run in an 11-point, 3-fold serial dilution with a final top compound concentration of 100 nM. Final DMSO in assay was 2%. FXIa was preincubated with compound for 30-minutes and then substrate was added to initiate the reaction. The assay was run with either end point (EP) reads at 30 min or kinetic (KIN) reads at 5 min intervals over 30 minutes. The time course was linear using 100 μM FXIa greater than 30 minutes. More specifically, the assay was run as follows: • 100 nL of 0.01 mM test compound was dispensed into black 384-well non-binding Greiner BioOne 784900 plate for 0.1 μM final concentration; • 5 μL of 1× assay buffer was dispensed to column 24 (low control) and 5 μL 2× Factor XIa solution was dispensed to columns 1-23 (column 23 high control); • the plate was centrifuged with a “cover” plate at 500 rpm for 1 min • the plate was pre-incubated for 30 minutes at room temperature with plate covered; • 5 μL of 2× 5Fam-KLTRAETV-K5Tamra peptide substrate was dispensed into the entire plate, columns 1-24; • the plate was centrifuged with a “cover” plate at 500 rpm for 1 min; • the plate was read monitoring fluorescence intensity on the BMG PHERAStar at room temperature, using fluorescence module 485 nm/520 nm.
as §1
[formula] • where LC—low control=mean signal of no Factor XIa or 100% inhibition of Factor XIa; HC—high control=mean signal of Factor XIa+5Fam-KLTRAETV-K5Tamra peptide substrate with DMSO only.
as §2
[formula] • where Y is the % inhibition in the presence of X inhibitor concentration, Top=high control=mean signal of Factor XIa+5Fam-KLTRAETV-K5Tamra peptide substrate with DMSO only; Bottom=low control—mean signal of no Factor XIa or 100% inhibition of Factor XIa; HillSlope—Hill coefficient; and IC50=concentration of compound with 50% inhibition in relation to top/high control.
Representative compounds of formula (I) of the present invention were tested according to the procedure described in Biological Example 1 and Biological Example 2 above, with results as listed in Table 3, below. […]

[1] = end point read at 30 min, 30 min preincubation, read-out: Kallikrein (EP) IC50
[2] = end point read at 30 min, 30 min preincubation, read-out: FXIa (EP) IC50
[3] = kinetic reads at 5 min intervals over 30 min, 30 min preincubation, read-out: Kallikrein (KIN) IC50
[4] = kinetic reads at 5 min intervals over 30 min, 30 min preincubation, read-out: FXIa (KIN) IC50
[5] = kinetic reads, unit μM, read-out: Kallikrein (KIN) IC50

Sequence of human plasma kallikrein (P03952 391-638 limits assumed): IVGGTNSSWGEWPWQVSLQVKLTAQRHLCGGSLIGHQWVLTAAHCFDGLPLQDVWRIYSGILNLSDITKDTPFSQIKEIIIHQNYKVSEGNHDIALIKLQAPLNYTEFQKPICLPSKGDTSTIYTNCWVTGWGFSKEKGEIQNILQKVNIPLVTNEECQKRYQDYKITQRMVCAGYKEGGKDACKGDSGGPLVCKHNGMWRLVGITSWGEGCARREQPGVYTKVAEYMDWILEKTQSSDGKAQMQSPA
Sequence of human plasma kallikrein (P03952 20-390 partner limits assumed): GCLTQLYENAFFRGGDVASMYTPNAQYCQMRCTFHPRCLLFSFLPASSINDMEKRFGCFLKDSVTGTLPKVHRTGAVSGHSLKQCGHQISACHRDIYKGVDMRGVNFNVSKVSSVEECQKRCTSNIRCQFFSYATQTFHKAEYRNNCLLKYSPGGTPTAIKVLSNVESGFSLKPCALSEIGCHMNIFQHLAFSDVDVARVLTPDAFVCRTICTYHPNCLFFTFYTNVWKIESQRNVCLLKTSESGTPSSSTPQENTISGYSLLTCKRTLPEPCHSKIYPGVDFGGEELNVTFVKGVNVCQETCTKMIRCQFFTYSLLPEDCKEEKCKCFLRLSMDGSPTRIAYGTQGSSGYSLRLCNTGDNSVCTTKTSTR

IC50 (human plasma kallikrein; [3]) [µM]	IC50 (Factor XIa; [4]) [µM]	SMILES	other results
		O=C(N[C@H]1C[C@H](O)C1)c1ccc(-c2cn(C(CC3CC3)c3ccc(-c4cc(Cl)ccc4-n4cnnn4)c[n+]3[O-])cn2)cc1 (mixture of isomers) [M2, 5-(5-Chloro-2-(1H-tetrazol-1-yl)phenyl)-2-(2-cyclopropyl-1-(4-(4-(((1R,3R)-3-hydroxycyclobutyl)carbamoyl)phenyl)-1H-imidazol-1-yl)ethyl)pyridine 1-oxide]	IC50 (human plasma kallikrein; [1]): 1.36 µM; IC50 (Factor XIa; [2]): 0.1 µM
0.202	0.0121	CCC(c1ccc(-c2c(-n3cnnn3)ccc(Cl)c2F)c[n+]1[O-])n1cnc(-c2ccc(NC(=O)OC)cc2)c1 (racemic) [M4, 5-(3-Chloro-2-fluoro-6-(1H-tetrazol-1-yl)phenyl)-2-(1-(4-(4-((methoxycarbonyl)amino)phenyl)-1H-imidazol-1-yl)propyl)pyridine 1-oxide]	
	> 0.1	[2H]C([2H])([2H])n1nccc1-c1cn(C(CCOC(F)F)c2ccc(-c3c(-n4cc(C(F)(F)F)nn4)ccc(Cl)c3F)c[n+]2[O-])cn1 (single isomer, unassigned) [M15, (R*)-5-(3-Chloro-2-fluoro-6-(4-(trifluoromethyl)-1H-1,2,3-triazol-1-yl)phenyl)-2-(3-(difluoromethoxy)-1-(4-(1-(methyl-d3)-1H-pyrazol-5-yl)-1H-imidazol-1-yl)propyl)pyridine 1-oxide]	IC50 (human plasma kallikrein; [5]): > 1 µM
0.0317	0.0005	[2H]C([2H])([2H])n1nccc1-c1cn(C(CCOC(F)F)c2ccc(-c3c(-n4cc(C(F)(F)F)nn4)ccc(Cl)c3F)c[n+]2[O-])cn1 (single isomer, unassigned) [M16, (S*)-5-(3-Chloro-2-fluoro-6-(4-(trifluoromethyl)-1H-1,2,3-triazol-1-yl)phenyl)-2-(3-(difluoromethoxy)-1-(4-(1-(methyl-d3)-1H-pyrazol-5-yl)-1H-imidazol-1-yl)propyl)pyridine 1-oxide]	
0.269	0.0318	COC(=O)Nc1ccc(-c2cn(C(CC3CC3)c3ccc(-c4c(-n5cnnn5)ccc(Cl)c4F)c[n+]3[O-])nn2)cc1 (single isomer, unassigned) [T3, (R*)-5-(3-Chloro-2-fluoro-6-(1H-tetrazol-1-yl)phenyl)-2-(2-cyclopropyl-1-(4-(4-((methoxycarbonyl)amino)phenyl)-1H-1,2,3-triazol-1-yl)ethyl)pyridine 1-oxide]	
0.0149	0.001	COC(=O)Nc1ccc(-c2cn(C(CC3CC3)c3ccc(-c4c(-n5cnnn5)ccc(Cl)c4F)c[n+]3[O-])nn2)cc1 (single isomer, unassigned) [T4, (S*)-5-(3-Chloro-2-fluoro-6-(1H-tetrazol-1-yl)phenyl)-2-(2-cyclopropyl-1-(4-(4-((methoxycarbonyl)amino)phenyl)-1H-1,2,3-triazol-1-yl)ethyl)pyridine 1-oxide]	
		O=C(O)c1ccc(-c2cn(C(CC3CC3)c3ccc(-c4cc(Cl)ccc4-n4cnnn4)c[n+]3[O-])cn2)cc1 (centres unmarked) [M1, 2-(1-(4-(4-Carboxyphenyl)-1H-imidazol-1-yl)-2-cyclopropylethyl)-5-(5-chloro-2-(1H-tetrazol-1-yl)phenyl)pyridine 1-oxide]	IC50 (human plasma kallikrein; [1]): 0.306 µM; IC50 (Factor XIa; [2]): 0.0071 µM
0.169	0.0085	COC(=O)Nc1ccc(-c2cn(C(CC3CC3)c3ccc(-c4c(-n5cnnn5)ccc(Cl)c4F)c[n+]3[O-])cn2)cc1 (centres unmarked) [M3, 5-(3-Chloro-2-fluoro-6-(1H-tetrazol-1-yl)phenyl)-2-(2-cyclopropyl-1-(4-(4-((methoxycarbonyl)amino)phenyl)-1H-imidazol-1-yl)ethyl)pyridine 1-oxide]	
0.0017	0.0007	[O-][n+]1cc(-c2c(-n3cnnn3)ccc(Cl)c2F)ccc1C(Cc1ccc(F)cc1)n1cnc(-c2ccncc2)c1 (centres unmarked) [M5, 5-(3-Chloro-2-fluoro-6-(1H-tetrazol-1-yl)phenyl)-2-(2-(4-fluorophenyl)-1-(4-(pyridin-4-yl)-1H-imidazol-1-yl)ethyl)pyridine 1-oxide]	
		[O-][n+]1cc(-c2c(-n3cc(C(F)(F)F)nn3)ccc(Cl)c2F)ccc1[C@H](CCOC(F)F)n1cnc(-c2ncnn2C(F)F)c1 [M6, (S)-5-(3-Chloro-2-fluoro-6-(4-(trifluoromethyl)-1H-1,2,3-triazol-1-yl)phenyl)-2-(3-(difluoromethoxy)-1-(4-(1-(difluoromethyl)-1H-1,2,4-triazol-5-yl)-1H-imidazol-1-yl)propyl)pyridine 1-oxide]	IC50 (human plasma kallikrein; [5]): > 10 µM; IC50 (Factor XIa; kinetic reads, unit μM printed in the cell, read-out: FXIa (KIN) IC50): > 10 µM
